tested on: rabbit skeletal myofibrils (fast skeletal myofibrils); test: Activation of fast skeletal myofibrils (PUMA assay, AC1.4); assay type: biochemical; settings: calcium at pCa25, AC1.4 = concentration at which the compound increased the enzymatic activity
Summary of the method: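 In 12 mM PIPES pH 6.8 with 2 mM MgCl2 and 1 mM DTT, Triton-washed rabbit skeletal myofibrils were run at the pCa25 calcium level. Myosin-made ADP was recycled through a PK/LDH coupled system; NADH loss read at 340 nm.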

| Structure (SMILES) | AC1.4 [µM] |
| --- | --- |
| CC[C@H](C)[C@H]1C(=O)Nc2ccccc2CN1C(=O)c1c[nH]nn1 [Compound 153, (S)-3-((S)-sec-butyl)-4-(1H-1,2,3-triazole-4-carbonyl)-1,3,4,5-tetrahydro-2H-benzo[e][1,4]diazepin-2-one] | 0.09 |
| CC[C@H](C)[C@H]1C(=O)Nc2ccccc2CN1C(=O)c1cccc(=O)n1C [Compound 154, (S)-3-((S)-sec-butyl)-4-(1-methyl-6-oxo-1,6-dihydropyridine-2-carbonyl)-1,3,4,5-tetrahydro-2H-benzo[e][1,4]diazepin-2-one] | 0.65 |
| CC[C@H](C)[C@H]1C(=O)Nc2ccccc2CN1C(=O)c1ccc(=O)[nH]c1 [Compound 155, (S)-3-((S)-sec-butyl)-4-(6-oxo-1,6-dihydropyridine-3-carbonyl)-1,3,4,5-tetrahydro-2H-benzo[e][1,4]diazepin-2-one] | 0.54 |
| CC[C@H](C)[C@H]1C(=O)Nc2ccccc2CN1C(=O)c1ccc(=O)n(C)c1 [Compound 156, (S)-3-((S)-sec-butyl)-4-(1-methyl-6-oxo-1,6-dihydropyridine-3-carbonyl)-1,3,4,5-tetrahydro-2H-benzo[e][1,4]diazepin-2-one] | 0.90 |
| CC[C@H](C)[C@H]1C(=O)Nc2ccccc2CN1C(=O)c1cnn(C)n1 [Compound 157, (S)-3-((S)-sec-butyl)-4-(2-methyl-2H-1,2,3-triazole-4-carbonyl)-1,3,4,5-tetrahydro-2H-benzo[e][1,4]diazepin-2-one] | 0.11 |
| CC[C@H](C)[C@H]1C(=O)Nc2ccccc2CN1C(=O)c1ccc(C(N)=O)nc1 [Compound 158, 5-((S)-3-((S)-sec-butyl)-2-oxo-2,3,4,5-tetrahydro-1H-benzo[e][1,4]diazepine-4-carbonyl)picolinamide] | 0.44 |
| CC[C@H](C)[C@H]1C(=O)Nc2ccccc2CN1C(=O)c1cnnn1C [Compound 159, (S)-3-((S)-sec-butyl)-4-(1-methyl-1H-1,2,3-triazole-5-carbonyl)-1,3,4,5-tetrahydro-2H-benzo[e][1,4]diazepin-2-one] | 0.59 |
| CC[C@H](C)[C@H]1C(=O)Nc2ccccc2CN1C(=O)c1ncc[nH]1 [Compound 160, (S)-3-((S)-sec-butyl)-4-(1H-imidazole-2-carbonyl)-1,3,4,5-tetrahydro-2H-benzo[e][1,4]diazepin-2-one] | 0.16 |
| CC[C@H](C)[C@H]1C(=O)Nc2ccccc2CN1C(=O)C1CCC(=O)N1 (stereo partly drawn) [Compound 161, (3S)-3-((S)-sec-butyl)-4-(5-oxopyrrolidine-2-carbonyl)-1,3,4,5-tetrahydro-2H-benzo[e][1,4]diazepin-2-one] | 2.25 |
| CC[C@H](C)[C@H]1C(=O)Nc2ccccc2CN1C(=O)c1cncc(C(N)=O)c1 [Compound 162, 5-((S)-3-((S)-sec-butyl)-2-oxo-2,3,4,5-tetrahydro-1H-benzo[e][1,4]diazepine-4-carbonyl)nicotinamide] | 0.11 |
| CCOC(=O)c1ccc(C(=O)N2Cc3ccccc3NC(=O)[C@@H]2[C@@H](C)CC)[nH]1 [Compound 163, ethyl 5-((S)-3-((S)-sec-butyl)-2-oxo-2,3,4,5-tetrahydro-1H-benzo[e][1,4]diazepine-4-carbonyl)-1H-pyrrole-2-carboxylate] | 0.05 |
| CC[C@H](C)[C@H]1C(=O)Nc2ccccc2CN1C(=O)c1cnn(C[C@@H](C)O)c1 [Compound 164, (S)-3-((S)-sec-butyl)-4-(1-((R)-2-hydroxypropyl)-1H-pyrazole-4-carbonyl)-1,3,4,5-tetrahydro-2H-benzo[e][1,4]diazepin-2-one] | 0.10 |
| CC[C@H](C)[C@H]1C(=O)Nc2ccccc2CN1C(=O)c1ccc2c(c1)NC(=O)C2 [Compound 165, (S)-3-((S)-sec-butyl)-4-(2-oxoindoline-6-carbonyl)-1,3,4,5-tetrahydro-2H-benzo[e][1,4]diazepin-2-one] | 0.14 |
| CC[C@H](C)[C@H]1C(=O)Nc2ccccc2CN1C(=O)c1ccc(C(=O)O)[nH]1 [Compound 166, 5-((S)-3-((S)-sec-butyl)-2-oxo-2,3,4,5-tetrahydro-1H-benzo[e][1,4]diazepine-4-carbonyl)-1H-pyrrole-2-carboxylic acid] | 0.45 |
| CC[C@H](C)[C@H]1C(=O)Nc2ccccc2CN1C(=O)c1ccc2c(c1)CC(=O)N2 [Compound 167, (S)-3-((S)-sec-butyl)-4-(2-oxoindoline-5-carbonyl)-1,3,4,5-tetrahydro-2H-benzo[e][1,4]diazepin-2-one] | 0.05 |
| CC[C@H](C)[C@H]1C(=O)Nc2ccccc2CN1C(=O)c1cc2nc(C(N)=O)ccc2[nH]1 [Compound 168, 2-((S)-3-((S)-sec-butyl)-2-oxo-2,3,4,5-tetrahydro-1H-benzo[e][1,4]diazepine-4-carbonyl)-1H-pyrrolo[3,2-b]pyridine-5-carboxamide] | 0.04 |

| Structure (SMILES) | AC1.4 [µM] |
| --- | --- |
| CC[C@H](C)[C@H]1C(=O)Nc2ccccc2CN1C(=O)c1ccc2[nH]c(C(N)=O)cc2n1 [Compound 169, 5-((S)-3-((S)-sec-butyl)-2-oxo-2,3,4,5-tetrahydro-1H-benzo[e][1,4]diazepine-4-carbonyl)-1H-pyrrolo[3,2-b]pyridine-2-carboxamide] | 0.06 |
| CC[C@H](C)[C@H]1C(=O)Nc2ccccc2CN1C(=O)c1ccc(=O)n(CCO)c1 [Compound 170, (S)-3-((S)-sec-butyl)-4-(1-(2-hydroxyethyl)-6-oxo-1,6-dihydropyridine-3-carbonyl)-1,3,4,5-tetrahydro-2H-benzo[e][1,4]diazepin-2-one] | 0.79 |
| CC[C@H](C)[C@H]1C(=O)Nc2ccccc2CN1C(=O)c1nc2cccnc2[nH]1 [Compound 171, (S)-3-((S)-sec-butyl)-4-(3H-imidazo[4,5-b]pyridine-2-carbonyl)-1,3,4,5-tetrahydro-2H-benzo[e][1,4]diazepin-2-one] | 0.03 |
| CC[C@H](C)[C@H]1C(=O)Nc2ccccc2CN1C(=O)c1ccn(C)c(=O)c1 [Compound 172, (S)-3-((S)-sec-butyl)-4-(1-methyl-2-oxo-1,2-dihydropyridine-4-carbonyl)-1,3,4,5-tetrahydro-2H-benzo[e][1,4]diazepin-2-one] | 0.63 |
| CC[C@H](C)[C@H]1C(=O)Nc2ccccc2CN1C(=O)c1cnn(CC(N)=O)c1 [Compound 173, 2-(4-((S)-3-((S)-sec-butyl)-2-oxo-2,3,4,5-tetrahydro-1H-benzo[e][1,4]diazepine-4-carbonyl)-1H-pyrazol-1-yl)acetamide] | 0.22 |
| CC[C@H](C)[C@H]1C(=O)Nc2ccccc2CN1C(=O)c1ccc(C(=O)NCCO)[nH]1 [Compound 174, 5-((S)-3-((S)-sec-butyl)-2-oxo-2,3,4,5-tetrahydro-1H-benzo[e][1,4]diazepine-4-carbonyl)-N-(2-hydroxyethyl)-1H-pyrrole-2-carboxamide] | 0.03 |
| CC[C@H](C)[C@H]1C(=O)Nc2ccccc2CN1C(=O)c1ccc(C(=O)NCC(O)CO)[nH]1 (stereo partly drawn) [Compound 175, 5-((S)-3-((S)-sec-butyl)-2-oxo-2,3,4,5-tetrahydro-1H-benzo[e][1,4]diazepine-4-carbonyl)-N-(2,3-dihydroxypropyl)-1H-pyrrole-2-carboxamide] | 0.04 |
| CC[C@H](C)[C@H]1C(=O)Nc2ccccc2CN1C(=O)c1cc2c(=O)[nH]ncc2[nH]1 [Compound 176, (S)-3-((S)-sec-butyl)-4-(4-oxo-4,5-dihydro-1H-pyrrolo[2,3-d]pyridazine-2-carbonyl)-1,3,4,5-tetrahydro-2H-benzo[e][1,4]diazepin-2-one] | 0.05 |
| CC[C@H](C)[C@H]1C(=O)Nc2ccccc2CN1C(=O)[C@@H]1CCCN1 [Compound 177, (S)-4-(L-prolyl)-3-((S)-sec-butyl)-1,3,4,5-tetrahydro-2H-benzo[e][1,4]diazepin-2-one] | 2.64 |
| CC[C@H](C)[C@H]1C(=O)Nc2ccccc2CN1C(=O)[C@H]1CCCN1 [Compound 178, (S)-4-(D-prolyl)-3-((S)-sec-butyl)-1,3,4,5-tetrahydro-2H-benzo[e][1,4]diazepin-2-one] | 3.37 |
| CC[C@H](C)[C@H]1C(=O)Nc2ccccc2CN1C(=O)c1cn(C)nc1CCO [Compound 179, (S)-3-((S)-sec-butyl)-4-(3-(2-hydroxyethyl)-1-methyl-1H-pyrazole-4-carbonyl)-1,3,4,5-tetrahydro-2H-benzo[e][1,4]diazepin-2-one] | 2.27 |
| CC[C@H](C)[C@H]1C(=O)Nc2ccccc2CN1C(=O)c1ccc(C(=O)N2CC(O)C2)[nH]1 [Compound 180, (S)-3-((S)-sec-butyl)-4-(5-(3-hydroxyazetidine-1-carbonyl)-1H-pyrrole-2-carbonyl)-1,3,4,5-tetrahydro-2H-benzo[e][1,4]diazepin-2-one] | 0.10 |
| CC[C@H](C)[C@H]1C(=O)Nc2ccccc2CN1C(=O)c1cc2nccnc2[nH]1 [Compound 181, (S)-3-((S)-sec-butyl)-4-(5H-pyrrolo[2,3-b]pyrazine-6-carbonyl)-1,3,4,5-tetrahydro-2H-benzo[e][1,4]diazepin-2-one] | 0.04 |
| CC[C@H](C)[C@H]1C(=O)Nc2ccccc2CN1C(=O)c1cnn(CCO)c1N [Compound 182, (S)-4-(5-amino-1-(2-hydroxyethyl)-1H-pyrazole-4-carbonyl)-3-((S)-sec-butyl)-1,3,4,5-tetrahydro-2H-benzo[e][1,4]diazepin-2-one] | 0.07 |
| CC[C@H](C)[C@H]1C(=O)Nc2ccccc2CN1C(=O)CCN1CC[C@H](O)C1 [Compound 184, (S)-3-((S)-sec-butyl)-4-(3-((S)-3-hydroxypyrrolidin-1-yl)propanoyl)-1,3,4,5-tetrahydro-2H-benzo[e][1,4]diazepin-2-one] | 0.55 |
| CC[C@H](C)[C@H]1C(=O)Nc2ccccc2CN1C(=O)CCN1CC[C@@H](O)C1 [Compound 185, (S)-3-((S)-sec-butyl)-4-(3-((R)-3-hydroxypyrrolidin-1-yl)propanoyl)-1,3,4,5-tetrahydro-2H-benzo[e][1,4]diazepin-2-one] | 0.92 |

— patent publication US12441691B2 (Cytokinetics, Inc., priority 2020, dated 2025)
